From patent US12595269B2, “Morpholine-like monoamine releasers” (Solvonis Therapeutics Ireland Holdings Limited, priority 2022, dated 2026)
Read-outs that look alike come from different tables or passages of the source.

Columns and labels:
Type in all cases: in vitro ADME
[1] = target: T1, CYP2C19 (Homo sapiens, UniProt P33261); assay: CYP450 inhibition, fluorescent probe, recombinant microsomes: CYP2C19
T1 construct: host or cells: recombinant microsomes
Method: (§1) Methods and Procedure: The study was performed in agreement with previously described procedures to assure data integrity and adherence to GLP standards. Briefly, recombinant human CYP450 isoenzymes were used to metabolize pro-fluorescent probe substrates to fluorescent products. IC50 values determined from the effect of test compounds on the metabolism of these probe substrates were then used to determine inhibitory potency against CYP450 isoforms.
(§2) The test system was based on a three-step procedure with a “mix and read” format, where PGP-432,TI reaction and reading were performed at 37° C. […] Fluorescence was measured in kinetic mode (1 read/minutes for 10 minutes), and the fluorescence rate was calculated. […]
(§3) Microsomes were added to the buffer prior to the substrate addition. […] For fluorescence measurement, 10 μL/well of the test compounds were transferred from the compound plate to the assay plate using Biomek FX and the appropriate protocol. […]
(§4) 10 μL/well of the cofactor was then added to the assay plate using the Multidrop before placing the assay plate in the plate reader EnVision to measure fluorescence. […]
(§5) Next, 10 μL/well from the compound plate was added and incubated for 10 minutes at 37° C. on a plate shaker, while a mixture of Vivid Substrate and Vivid NADP+ in Vivid CYP450 Reaction Buffer was prepared. […] Regarding data analysis, the inhibition effect is expressed as a percentage. […]

[2] = target: T2, CYP2D6 (Homo sapiens, UniProt P10635); assay: CYP450 inhibition, fluorescent probe, recombinant microsomes: CYP2D6
T2 construct: host or cells: recombinant microsomes
T2 sequence (P10635 whole entry): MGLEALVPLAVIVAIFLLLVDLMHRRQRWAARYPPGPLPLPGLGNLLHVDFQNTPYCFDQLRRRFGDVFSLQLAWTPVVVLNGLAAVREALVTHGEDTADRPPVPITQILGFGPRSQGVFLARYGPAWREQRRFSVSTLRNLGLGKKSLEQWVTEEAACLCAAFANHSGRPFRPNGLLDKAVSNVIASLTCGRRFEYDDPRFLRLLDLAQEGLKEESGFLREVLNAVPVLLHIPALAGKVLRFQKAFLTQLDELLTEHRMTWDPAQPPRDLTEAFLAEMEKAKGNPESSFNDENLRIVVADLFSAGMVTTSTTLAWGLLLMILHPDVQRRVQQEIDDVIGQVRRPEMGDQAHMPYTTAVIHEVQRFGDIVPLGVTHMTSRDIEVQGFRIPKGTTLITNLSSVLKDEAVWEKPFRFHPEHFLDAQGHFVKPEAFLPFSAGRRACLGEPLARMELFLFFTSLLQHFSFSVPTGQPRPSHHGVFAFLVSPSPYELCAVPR
Method: as §1, §2, §3, §4, §5

[3] = target: T3, CYP2C8 (Homo sapiens, UniProt P10632); assay: CYP450 inhibition, CYP2C8 Baculosomes, Vivid DBOMF substrate
T3 construct: purchased Life Technologies PV6138; host or cells: Baculosomes
T3 sequence (P10632 1-490): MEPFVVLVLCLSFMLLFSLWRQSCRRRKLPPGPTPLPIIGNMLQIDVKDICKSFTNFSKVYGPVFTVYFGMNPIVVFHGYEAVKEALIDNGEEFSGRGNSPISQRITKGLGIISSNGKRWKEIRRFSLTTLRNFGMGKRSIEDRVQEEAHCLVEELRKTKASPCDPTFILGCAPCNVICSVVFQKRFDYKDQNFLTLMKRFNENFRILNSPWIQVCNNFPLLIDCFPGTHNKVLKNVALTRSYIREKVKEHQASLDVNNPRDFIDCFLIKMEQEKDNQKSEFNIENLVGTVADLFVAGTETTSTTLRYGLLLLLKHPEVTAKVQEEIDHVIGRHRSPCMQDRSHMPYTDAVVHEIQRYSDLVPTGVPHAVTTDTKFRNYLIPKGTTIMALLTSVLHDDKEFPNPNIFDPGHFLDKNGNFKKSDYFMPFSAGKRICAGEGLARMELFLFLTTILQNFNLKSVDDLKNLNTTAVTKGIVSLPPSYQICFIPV
Method: as §1, §2
Next, 10 μL/well from the compound plate was added and incubated for 10 minutes at 37° C. on a plate shaker, while a mixture of Vivid Substrate and Vivid NADP+ in Vivid CYP450 Reaction Buffer was prepared. The reaction was initiated by adding 10 μL/well of the Vivid Substrate and NADP+ mixture, before transferring the plate into the fluorescent plate reader (immediately, within 2 minutes), and fluorescence was monitored every minute for 10 minutes according to the specific protocol. Regarding data analysis, the inhibition effect is expressed as a percentage. […]

T1 sequence (P33261 whole entry): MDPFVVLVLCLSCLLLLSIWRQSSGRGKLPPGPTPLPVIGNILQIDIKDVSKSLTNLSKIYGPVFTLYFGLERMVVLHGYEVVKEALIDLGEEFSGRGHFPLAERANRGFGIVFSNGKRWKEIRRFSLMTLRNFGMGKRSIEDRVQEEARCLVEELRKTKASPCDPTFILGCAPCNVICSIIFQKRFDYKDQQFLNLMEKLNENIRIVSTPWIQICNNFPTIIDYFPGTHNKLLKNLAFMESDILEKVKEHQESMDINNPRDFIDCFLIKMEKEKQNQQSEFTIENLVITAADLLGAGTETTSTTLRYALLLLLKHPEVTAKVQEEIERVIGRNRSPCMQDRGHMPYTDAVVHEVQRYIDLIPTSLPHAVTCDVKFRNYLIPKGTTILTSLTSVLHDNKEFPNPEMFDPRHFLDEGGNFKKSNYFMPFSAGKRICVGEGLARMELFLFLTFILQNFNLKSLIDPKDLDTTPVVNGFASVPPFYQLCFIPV

Compound	IC50 ([1]; recombinant human CYP2C19)	IC50 ([2]; recombinant human CYP2D6, read-out: CYP450 Inhibition (IC50), CYP2D6)	IC50 ([3]; recombinant human CYP2C8)	IC50 at 10 min ([1]; human, recombinant microsomes expressing CYP2C19)	IC50 [2]	IC50 at 10 min ([3]; human, recombinant CYP2C8 Baculosomes, pH 8, probe Vivid DBOMF)
Clc1ccc(C23CNC(CO2)C3)cc1Cl (stereo not drawn) [522A, 1-(3,4-dichlorophenyl)-2-oxa-5-azabicyclo[2.2.1]heptane]	> 50 µM	2.87 µM	> 50 µM	–	–	–
CNC(C)Cc1ccc2c(c1)OCO2 (stereo not drawn) [MDMA, reference compound]	–	–	–	50 µM	1.6 µM	50 µM
